Experiments:
[1] = molecular target: T1, LasB Q71L (Pseudomonas aeruginosa, UniProt P14756); experiment: LasB variant inhibition, culture supernatant: Q71L; type: biochemical, P. aeruginosa
T1 construct: endogenous in cells; host or cells: P. aeruginosa clinical CF isolate, culture supernatant
Text: Compounds 12 and 16 were discovered as a result of optimizing potency against the LasB protein expressed from the wild-type (WT) reference strain P. aeruginosa PAO1. To understand the relative prevalence of the WT LasB protein versus other variants in clinical respiratory P. aeruginosa strains, the full-length lasB gene was amplified by PCR from 255 clinical isolates (obtained from CF sputum samples). […] Most changes were identified in the mature peptide, however some occurred in the propeptide domain, which could affect LasB processing (marked in italics in Table 4).
LasB inhibition assays were performed using purified LasB enzyme (1 ng/well) for compound screening or using culture supernatants (prepared as described in the ECR assay) for testing LasB variants. Hydrolysis of the fluorogenic peptide substrate 2-aminobenzoyl-Ala-Gly-Leu-Ala-4-nitrobenzylamide (Abz-AGLA-Nba; Peptide International) in 50 mM Tris-HCl (pH 7.4), supplemented with 2.5 mM CaCl2 was followed using an Envision microplate reader (PerkinElmer) at 315 nm excitation and 430 nm emission. […] IC50 values were determined from Hill plots using Dotmatics Studies ELN software. For the mechanism of inhibition studies, hydrolysis rates were measured in the presence of variable concentrations of substrate and inhibitor, and the inhibition constant (Ki) was determined using Dixon plot analysis.[31]

[2] = Thermodynamic solubility in PBS (pH 7.4); type: physicochemical; conditions: aqueous buffer, thermodynamic from solid
[3] = Mouse pharmacokinetics, plasma; type: in vivo; conditions: single 10 mg/kg IV dose; for half-life / C0 / AUC(0-t) / clearance: female, ICR (CD-1), plasma; for half-life: iv, read-out: plasma t1/2 (converted); for half-life / plasma t1/2: 10 mg/kg; for AUC(0-t): read-out: plasma AUClast; for clearance: read-out: plasma CL
Procedure: The PK parameters of compounds 12 and 16 were investigated in both plasma and lung epithelial lining fluid (ELF) after intravenous (IV) administration of compounds at 10 mg/kg in mice (Figure 4 and Table 5). […] Accordingly, these levels of lung penetration (9.5 and 5.2%, respectively) warranted the evaluation of the compounds in an animal model of lung infection using IV dosing.
Unrestrained, nonanesthetized mice (Female ICR (CD-1); Age 5–6 weeks; Size 22 ± 2 g; specific pathogen-free (SPF)) were injected IV with test article formulations via the tail vein. Animals were sacrificed by cardiac puncture under CO2 euthanasia at 0.08, 0.25, 1, 2, 4, 8, and 24 h post dosing. Blood was drawn into tubes coated with EDTA-K3, mixed gently and plasma was then harvested and kept frozen at −70 °C until further processing. To collect […] (BALF), 0.5 mL of PBS was administered once through a tracheal cannula after which about 0.2 to 0.3 mL of BALF was obtained. The BALF was kept on ice and centrifuged within 1 h of collection and the supernatant was harvested and kept frozen at −70 °C. Plasma and BALF samples were analyzed by LC-MS/MS (AB SCIEX API 3000 mass spectrometer). The apparent ELF volume of each BALF sample was estimated using urea as an endogenous marker of the ELF dilution. The urea concentrations in BALF and plasma samples were determined with the QuantiChrom Urea Assay Kit (DIUR-100) (BioAssay Systems) following the manufacturer’s protocol. For each BALF sample, the drug concentration in ELF was calculated as follows: drug concentrationELF = drug concentrationBALF × (urea concentrationplasma/urea concentrationBALF). The PK parameters of each compound after IV dosing (t1/2, C0, AUClast, and CL) were obtained from the noncompartmental analysis (NCA) of the plasma data using WinNonlin.

[4] = Cytotoxicity screening (MTS), SAEC; type: cell-based; conditions: human, small airway epithelial cells (SAEC)
Procedure: Bronchial smooth muscle cells (BSMC, Lonza CC-2576), small airway epithelial cells (SAEC, Lonza CC-2547), or HepG2 cells (ATCC HB-8065) were seeded in 96-well plates at a density of 25,000 per well. Culture of these cells throughout the protocol utilized incubation at 37 °C, 5% CO2 in a humidified atmosphere, with BSMC and SAEC cells cultured in cell-specific media (Lonza) and HepG2 cells cultured in RPMI 1640 medium containing Glutamax (Gibco) and 10% fetal bovine serum. Plates containing BSMC cells were collagen coated to assist with cell adhesion. Following an overnight settling period, media was replaced with fresh media, with, or without, compound. Compound concentrations tested were 1, 3, 10, 30, and 100 μM, in duplicate. The cells were incubated with compound for 24 h. Control (1% DMSO) and positive standards terfenadine- and salmeterol-treated groups were included for both cell lines. […] The reaction was stopped with 12.5 μL of 10% SDS, plates briefly shaken, and absorbance (490 nm) read using a Spectramax M5e plate reader (Molecular Devices). Percentages of viable cells were calculated as: (test sample Abs 490 nM-mean blank Abs 490 nm)/(mean control Abs 490 nM-mean blank Abs 490 nm) × 100.

T1 sequence (P14756 198-498, stated change not applied): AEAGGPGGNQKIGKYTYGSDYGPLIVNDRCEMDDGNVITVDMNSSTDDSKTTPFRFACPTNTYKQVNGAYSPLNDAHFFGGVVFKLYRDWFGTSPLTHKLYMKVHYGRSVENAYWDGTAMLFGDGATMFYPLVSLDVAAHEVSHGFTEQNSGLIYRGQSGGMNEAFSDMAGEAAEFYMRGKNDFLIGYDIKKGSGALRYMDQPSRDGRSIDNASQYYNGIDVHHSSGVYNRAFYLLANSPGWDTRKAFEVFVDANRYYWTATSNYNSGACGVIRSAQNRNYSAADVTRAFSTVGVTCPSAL

Row | Compound | IC50 [1] [nM] | solubility [2] [mg/mL] | half-life [3] [min] | C0 [3] [µg/mL] | AUC(0-t) [3] [µg·h/mL] | clearance [3] [mL/min/kg] | plasma t1/2 [3] [h] | IC50 at 24 h [4] [µM]
1 | COc1cc2sc(CNC(=O)C3(CC(=O)O)Cc4ccccc4C3)nc2cc1OCCC[N+](C)(C)C [Compound 12] | 214 | 17.7 | ~360 | 92.2 | 610 | 0.3 | 6.2 | > 100
2 | COc1cc2sc(CNC(=O)C3(CC(=O)O)Cc4cc(F)c(F)cc4C3)nc2cc1OCCC[N+](C)(CCO)CCO [Compound 16] | 177 | 15.1 | ~360 | 176 | 517 | 0.3 | 6.5 | > 100
